Data on 1 compound can be found in doi:10.64898/2025.12.31.695415v1, “Correlated dynamics, reactive conformations and non-Arrhenius behaviour in the temperature-dependence of enzyme activity: triosephosphate isomerase” (biorxiv, 2025).

For the assay, the target named is T1, meso-TIM (Saccharomyces cerevisiae, UniProt P00942).
T1 construct: gene TPI1; N-terminal His6 tag, pET28b, E. coli BL21(DE3); dimer; PDB 1NEY is the simulation model
T1 sequence (P00942 2-248): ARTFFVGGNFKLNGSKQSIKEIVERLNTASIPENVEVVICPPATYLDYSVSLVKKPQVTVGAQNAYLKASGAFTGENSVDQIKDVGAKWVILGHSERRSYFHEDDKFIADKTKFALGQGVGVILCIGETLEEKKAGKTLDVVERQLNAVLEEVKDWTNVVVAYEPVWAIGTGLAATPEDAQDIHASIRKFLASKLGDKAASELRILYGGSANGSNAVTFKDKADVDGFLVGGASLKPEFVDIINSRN
As to the kind of experiment: stopped-flow, GAPD-coupled assay, […] nm. Type of assay: biochemical. The settings on record: 50 mM HEPES pH 7.4, 150 mM NaCl, 10 mM MgCl2, 2.5 mM (NH4)2SO4; two temperatures.

For the compound `O=C(CO)COP(=O)(O)O` [dihydroxyacetone phosphate], the Km result is recorded as “substrate binding kinetics were determined at two temperatures”.
